Measured values: patent US5380729A, “12-hetero substituted 6,11-ethano-6,11-dihydrobenzo (b) quinolizinium salts and compositions and method of use thereof” (Sterling Winthrop Inc., priority 1993, dated 1995)

Experiments:
[1] = test system: NMDA-induced neurotoxicity in cultured cortical neurons; experiment: Antagonism of NMDA-induced neurotoxicity in cultured neurons (LDH release); type: cell-based, mouse (Swiss-Webster); details: 500 μM NMDA, 30 minutes, LDH activity at 24 hours, mouse cortical neurons
Experimental: Antagonism of NMDA-induced Neurotoxicityin Cultured Neurons
Preparation of Cultured Cortical Neurons
Pregnant, Swiss-Webster mice were obtained from Taconic Farms (Germantown, New York) and sacrificed 16 days post conception. Fetuses were removed and placed in a sterile dish containing Hank's balanced salt solution (HBSS), pH 7.4. Brain cortices were dissected, meninges were removed, the tissue was minced and placed into a solution of HBSS containing 0.25% (w/v) trypsin at 37° C. for 15 minutes. Tissue was then triturated with a sterile pasteur pipet, diluted with minimal essential media (Gibco 330-1430), pH 7.4, supplemented with 10% horse serum, 10% fetal calf serum, 2 mM 1-glutamine, 21 mM d-glucose, 2.2 g/L sodium bicarbonate, 1000 u/ml penicillin, and 1,000 μg/ml streptomycin. Cells were plated onto Falcon primaria 96 well plates at a final density of 50,000 cells/well and incubated at 37° C. in the presence of 5% (v/v) carbon dioxide. After 5 days, plating media was replaced with maintenance media containing minimal essential media (Gibco 330- 1430), pH 7.4, supplemented with 10% horse serum, 10% 1-glutamine, 21 mM d-glucose, 2.2 g/l sodium bicarbonate,1,000 U/ml penicillin, 1,000 μg/ml streptomycin, and 10 μM cytosine arabinoside. On days 7 and 10, media was replaced with maintenance media as above lacking the cytosine arabinoside. Experiments were conducted on day 13.
Neuroprotection Assessment
Day 13 cultured cortical neurons were washed twice with minimal essential media, pH 7.4 and then exposed for 30 minutes to 500 μM N-methyl-D-aspartic acid (NMDA) with or without varying concentrations of test agents. Dizocilpine (MK-801) at a final concentration of 10 μM MK-801 was routinely included as a positive control. MK-801 and test agents were prepared in minimal essential media supplemented with 21 mM d-glucose and 2.2 g/L sodium bicarbonate (MEM). After 30 minutes, media was replaced with MEM alone. Exposure of neurons to test agents was limited to the NMDA treatment period. Twenty-four hours after removal of NMDA, an aliquot of media from each well was removed for assessment of cell injury by determining lactate dehydrogenase (LDH) activity by. the method of Wroblewski and LaDue Proc. Soc. Exp. Biol. Med. 1955, 90, 210-213. The results are expressed as an IC50 (in nM) value (concentration causing 50% inhibition) for the antagonism of NMDA--inducedneurotoxicity.

PCP recognition sites = experiment: [3H]TCP Radioreceptor Assay (internal screen); type: binding, rat (male Sprague-Dawley; details: rat whole brain membranes, room temperature, 25 min; for Ki: ~1 nM [3H]TCP; for Percent inhibition, [3H]TCP (internal screen): @ 10 μM
Experimental: [^3 H]TCP Radioreceptor Assay (internal screen)
[^3 H]TCP binding to PCP recognition sites was performed as described by Vignon et al. Brain Research 1983, 280, 194°197. Male Sprague-Dawley rats were sacrificed by decapitation, and whole brains were homogenized in 10 volumes (wt/vol) of cold Tris-HCl buffer (50 mM, pH 7.7) using a Brinkmann Polytron (setting 6, 30 sec). The homogenate was centrifuged at 40,000×g for 10 min at 4° C. The supernatant was decanted, and the homogenization and centrifugation steps were repeated twice as described above. Following this, the pellet was resuspended in Tris-HCl (5 mM, pH 7.7) at a tissue concentration of 0.5°0.75 g/ml, and one ml aliquots were frozen at -70° C. until use. The binding characteristics for PCP recognition sites were not altered by the freezing of membrane suspensions.
On the day of the assay, membrane aliquots were thawed, resuspended in fresh 5 mM Tris-HCl buffer at a tissue concentration of 1 mg/ml, and stored on ice until use. Each assay tube contained 100 μl of [^3 H]TCP at a final concentration of approximately 1 nM, 100 μl of various concentrations of the compounds of interest, 500 μl of the tissue suspension and 300 of buffer to a final assay volume of 1 ml and a final protein concentration of 0.5 mg/tube. Non-specific binding was defined by addition of a final concentration of 100 μM PCP to blank tubes. All tubes were incubated at room temperature for 25 min before termination of the reaction by rapid filtration over Whatman GF/B glass fiber filters that had been presoaked in a solution of 0.5% polyethylenimine for at least 1 hr prior to use. Filters were washed with three 4 ml volumes of cold Tris buffer. Following addition of scintillation cocktail, the amount of bound radioactivity was determined by liquid scintillation spectrometry using a Beckman LS 5000TA liquid scintillation counter with an efficiency for tritium of approximately 55% . Inhibition constants (Ki values) were calculated using the EBDA/LIGAND program (McPherson, J. Pharmacol. Meth. 1985, 14, 213-228), purchased from Elsevier/Biosoft, Inc. Results are reported as Ki values or as a percent (%) inhibition of binding at 10

SMILES	Ki (PCP recognition sites) [µM]	further results
CCOC1(OCC)C2c3cc(OC)ccc3C([n+]3ccccc32)C1(C)C (single isomer, unassigned) [20(a), 9-methoxy-12,12-diethoxy-13,13-dimethyl-6,11-ethano-6,11-dihydrobenzo[b]quinolizinium hexafluorophosphate]	0.00352	IC50 [1]: 0.157 µM
CCOC1(OCC)C2c3ccccc3C([n+]3ccccc32)C1(C)C (single isomer, unassigned) [Example 13(c), 12,12-diethoxy-13,13-dimethyl-6,11-ethano-6,11-dihydrobenzo[b]quinolizinium chloride-1/2-3/4 hydrate]		IC50 ([1]; Cortical neurone): 0.05 µM; Ki (PCP recognition sites; hydrate): 0.011 µM
CCOC1(OCC)C2c3ccccc3C(C1C)[n+]1ccccc12 (single isomer, unassigned) [Example 37, 6,11-ethano-12,12-diethoxy-13-methyl-6,11-dihydrobenzo[b]quinolizinium]		IC50 ([1]; Cortical neurone): 0.81 µM
CCOC1(OCC)C2c3ccccc3C(C1Cl)[n+]1ccccc12 (single isomer, unassigned) [Example 41, 6,11-ethano-12,12-diethoxy-13-chloro-6,11-dihydrobenzo[b]quinolizinium bromide]	0.067	IC50 ([1]; Cortical neurone): 0.445 µM
CCOC1(OCC)C2c3ccccc3C([n+]3ccccc32)C1(C)C.[O-][Cl+3]([O-])([O-])[O-] (centres unmarked) [1(a), 12,12-diethoxy-13,13-dimethyl-6,11-ethano-6,11-dihydrobenzo[b]quinolizinium perchlorate]	0.0084	IC50 ([1]; Cortical neurone): 0.017 µM
CCOC1(OCC)C2c3c(OC)cccc3C([n+]3ccccc32)C1(C)C (centres unmarked) [19(d), 10-methoxy-12,12-diethoxy-13,13-dimethyl-6,11-ethano-6,11-dihydrobenzo[b]quinolizinium chloride·3/2 hydrate]		IC50 ([1]; Cortical neurone): 0.0218 µM; Ki (PCP recognition sites; hydrate): 0.0104 µM
CCOC1(OCC)CC2c3ccccc3C1c1cccc[n+]12 (centres unmarked) [28(b), 6,11-ethano-12,12-diethoxy-6,11-dihydrobenzo[b]quinolizinium chloride]	4.27	IC50 ([1]; Cortical neurone): 95.5 µM
CCOC1(OCC)C2c3c(Br)cccc3C([n+]3ccccc32)C1(C)C (centres unmarked) [Example 30, 6,11-ethano-12,12-diethoxy-13,13-dimethyl-10-bromo-6,11-dihydrobenzo[b]quinolizinium chloride]	0.107	
CCOC1(OCC)C2c3c(ccc4c3OCO4)C([n+]3ccccc32)C1(C)C.[O-][Cl+3]([O-])([O-])[O-] (centres unmarked) [Example 31, 6,11-ethano-12,12-diethoxy-13,13-dimethyl-9,10-methylenedioxy-6,11-dihydrobenzo[b]quinolizinium perchlorate]	0.00742	
CCOC1(OCC)C2(C)c3c(OC)cccc3C([n+]3ccccc32)C1(C)C.[O-][Cl+3]([O-])([O-])[O-] (centres unmarked) [Example 32, 6,11-ethano-12,12-diethoxy-13,13-dimethyl-10-methoxy-11-methyl-6,11-dihydrobenzo[b]quinolizinium perchlorate]	0.0637	
CCOC1(OCC)C2c3ccccc3C([n+]3cccc(OC)c32)C1(C)C.[O-][Cl+3]([O-])([O-])[O-] (centres unmarked) [Example 33, 6,11-ethano-12,12-diethoxy-13,13-dimethyl-1-methoxy-6,11-dihydrobenzo-[b]quinolizinium perchlorate]	0.0258	
CCOC1(OCC)C2c3ccccc3C(C1Br)[n+]1ccccc12.[O-][Cl+3]([O-])([O-])[O-] (centres unmarked) [Example 36, 6,11-ethano-12,12-diethoxy-13-bromo-6,11-dihydrobenzo[b]quinolizinium perchlorate]	0.0204	
COC1(O[Si](C)(C)C)C2c3ccccc3C([n+]3ccccc32)C1(C)C.[O-][Cl+3]([O-])([O-])[O-] (centres unmarked) [Example 40, 6,11-ethano-12-methoxy-12-trimethylsilyloxy-13,13-dimethyl-6,11-dihydrobenzo[b]quinolizinium perchlorate]	1.59	
CCN(CC)C1C2c3ccccc3C([n+]3ccccc32)C1(C)C (centres unmarked) [Example 44, 6,11-ethano-12-(diethyl) amino-13,13-dimethyl-6,11-dihydrobenzo[b]quinolizinium diperchlorate]	0.501	
C[C@@H]1C[C@@H](C)OC2(O1)C1c3ccccc3C([n+]3ccccc31)C2(C)C (stereo partly drawn) [Example 45, 6,11-ethano-12,12-(2R,4R-pentanediolketal)-13,13-dimethyl-6,11-dihydrobenzo[b]quinolizinium perchlorate]	0.517	
CCOC1(OCC)C2c3c(C)cccc3C([n+]3ccccc32)C1(C)C.[O-][Cl+3]([O-])([O-])[O-] (centres unmarked) [Example 47, 6,11-ethano-12,12-diethoxy-13,13-dimethyl-10-methyl-6,11-dihydrobenzo[b]quinolizinium perchlorate]	0.0455	
CCOC1C2c3ccccc3C([n+]3ccccc32)C1(C)C.[O-][Cl+3]([O-])([O-])[O-] (centres unmarked) [Example 48, 6,11-ethano-12-ethoxy-13,13-dimethyl-6,11-dihydrobenzo[b]quinolizinium perchlorate]	2.15	
CCOC1(OCC)C2c3c(OC)ccc(OC)c3C([n+]3ccccc32)C1(C)C.[O-][Cl+3]([O-])([O-])[O-] (centres unmarked) [Example 52, 6,11-ethano-12,12-diethoxy-13,13-dimethyl-7,10-dimethoxy-6,11-dihydrobenzo[b]quinolizinium perchlorate]		Percent inhibition, [3H]TCP (internal screen) (PCP recognition sites): 33%
CCOC1(OCC)C2c3cccc(C)c3C([n+]3ccccc32)C1(C)C (centres unmarked) [Example 55, 6,11-ethano-12,12-diethoxy-13,13-dimethyl-7-methyl-6,11-dihydrobenzo[b]quinolizinium chloride]	0.455	
CC(=O)Oc1ccc(C(C)(C)C)c2c1C1[n+]3ccccc3C2C2(O[C@H](C)[C@@H](C)O2)C1(C)C (stereo partly drawn) [Example 56, 6,11-ethano-12,12-(2R,3R-butanediolketal)-13,13-dimethyl-7-acetoxy-10-t-butyl-6,11-dihydrobenzo[b]quinolizinium perchlorate]		Percent inhibition, [3H]TCP (internal screen) (PCP recognition sites): 24%
CC(=O)Oc1ccc(C(C)(C)C)c2c1C1[n+]3ccccc3C2C2(O[C@H](C)C[C@@H](C)O2)C1(C)C (stereo partly drawn) [Example 57, 6,11-ethano-12,12-(2R,4R-pentanediolketal)-13,13-dimethyl-7-acetoxy-10-t-butyl-6,11-dihydrobenzo[b]quinolizinium perchlorate]		Percent inhibition, [3H]TCP (internal screen) (PCP recognition sites): 18%
CCOC1(OCC)C2c3c(C(C)(C)C)ccc(OC(C)=O)c3C([n+]3ccccc32)C1(C)C.[O-][Cl+3]([O-])([O-])[O-] (centres unmarked) [Example 58, 6,11-ethano-12,12-diethoxy-13,13-dimethyl-7-acetoxy-10-t-butyl-6,11-dihydrobenzo[b]quinolizinium perchlorate]		Percent inhibition, [3H]TCP (internal screen) (PCP recognition sites): 12%
CCN(CC)C1C2c3ccccc3C(C1C)[n+]1ccccc12 (centres unmarked) [Example 62, 6,11-ethano-12-(diethyl) amino-13-methyl-6,11-dihydrobenzo[b]quinoliziniumperchlorate]	12.2	
